Results from US9549554B2, “Insecticidal synergistic combinations of phthaldiamide derivatives and abamectin, emamectin, lepimectin or milbemectin” (BAYER CROPSCIENCE AKTIENGESELLSCHAFT, priority 2013, dated 2017).

Columns and labels:
Spodoptera frugiperda = test: whole plant or invertebrate
Experimental: Solvent: 78.0 parts by weight acetone
• 1.5 parts by weight dimethylformamide Emulsifier: 0.5 parts by weight alkylarylpolyglycolether
To produce a suitable preparation of a spore suspension the spores are diluted with emulsifier-containing water to the desired concentration.
Maize (Zea mais) leaf sections are sprayed with a preparation of the active ingredient of the desired concentration. Once dry, the leaf sections are infested with fall armyworm larvae (Spodoptera frugiperda).
After the specified period of time, mortality in % is determined. 100% means all caterpillars have been killed and 0% means none of the caterpillars have been killed. The mortality values determined thus are recalculated using the Colby-formula (see sheet 1).

Phaedon cochleariae = Phaedon cochleariae spray test (Chinese cabbage leaf disks); format: in vivo; conditions: mustard beetle larvae
Excerpt: Solvent: 78.0 parts by weight of acetone
• 1.5 parts by weight of dimethylformamide Emulsifier: 0.5 parts by weight of alkylaryl polyglycolether
Once dry, the leaf disks are infested with mustard beetle larvae (Phaedon cochleariae).
100% means all beetle larvae have been killed and 0% means none of the beetle larvae have been killed.

Myzus persicae = Myzus persicae spray test (infested cabbage leaves); format: in vivo; conditions: green peach aphid
Experimental: Solvent: 7 parts by weight of dimethylformamide
Emulsifier: alkylaryl polyglycolether
Further test concentrations are prepared by dilution with emulsifier containing water Ammonium salt and/or penetration enhancer in a dosage of 1000 ppm are added to the desired concentration if necessary.
Cabbage leaves (Brassica oleracea) which are heavily infested by the green peach aphid (Myzus persicae) are treated by being sprayed with the preparation of the active compound of the desired concentration.

[1] = Spodoptera frugiperda, in Zea mays, 144 h, read-out: Efficacy in % after 6d (mortality)

Abamectin [Abamectin (II-1), reference compound]
Efficacy in % after 6d (mortality) (Spodoptera frugiperda; 15 g ai/ha, fall armyworm larvae, after 6 d): 0%
Efficacy in % after 6d (mortality) (Phaedon cochleariae; 0.032 g ai/ha): 0%

Cc1cc(C(F)(C(F)(F)F)C(F)(F)F)ccc1NC(=O)c1cccc(Cl)c1C(=O)NC(C)(C)C#N [(I-5)]
mortality at 0.25 g/ha (Spodoptera frugiperda; [1]): 0%
mortality at 3 g/ha (Spodoptera frugiperda; [1]): 33%
mortality at 3 ppm (Myzus persicae; Myzus persicae, 144 h, 3 ppm, after 6 d, read-out: Efficacy in % after 6d (mortality)): 0%
mortality at 75 ppm (Myzus persicae; Myzus persicae, 144 h, 75 ppm, after 6 d, read-out: Efficacy in % after 6d (mortality)): 0%
mortality at 4 g/ha (Phaedon cochleariae; Phaedon cochleariae, foliar, 144 h, 4 g ai/ha, after 6 d, read-out: Efficacy in % after 6d (mortality)): 0%

Emamectin benzoate [Emamectin-Benzoate, reference compound]
Efficacy in % after 6d (mortality) (Myzus persicae; 15 ppm): 15%
